Experimental data published in patent publication US10947210B2 (priority 2015, dated 2021).

Target: HCV RNA-dependent RNA polymerase (NS5B) (Hepatitis C virus genotype 1b (isolate BK) (HCV), UniProt P26663)
Test: RNA-Dependent RNA HCV NS5B (polymerase) Assay and IC50 Determination
Type: biochemical
Conditions: purified HCV NS5B polymerase, polyA:U16 substrate, 32P-UTP incorporation; read-out: IC50
Procedure: RNA-Dependent RNA HCV NS5B (polymerase) Assay and IC50 Determination.
The reaction mixtures consisted of 50 mM Hepes-KOH, pH 7.5, 5 mM MgCl2, 5 mM DTT, 2% glycerol, 0.01% Triton® X-100, 0.5 uM polyA:U16 substrate, purified HCV RNA-dependent RNA polymerase, 10 μM UTP, and ^32P-UTP (Perkin Elmer). The reaction mixtures incubated at 30° C. for 60 minutes, and then filtered through Zeta probe membrane (BioRad). The filter was washed with 5×SSC (75 mM sodium citrate, pH 7 and 750 mM NaCl), and the radiolabeled RNA products were quantitated by microbeta (Perkin Elmer). For IC50 determination, different concentrations of inhibitors were added to the polymerase reaction mixtures, and incubated at 37° C. for 60 minutes. IC50 values were determined using GraFit (Erithaus software).
Table 1 presents IC50 data obtained using the biochemical assay to test representative compounds. Data are presented as follows: “+++” means <0.1 μM; “++” means ≥0.1 μM but <1.0 μM; “+” means ≥1.0 μM.

Sequence of HCV RNA-dependent RNA polymerase (NS5B) (P26663 2420-3010): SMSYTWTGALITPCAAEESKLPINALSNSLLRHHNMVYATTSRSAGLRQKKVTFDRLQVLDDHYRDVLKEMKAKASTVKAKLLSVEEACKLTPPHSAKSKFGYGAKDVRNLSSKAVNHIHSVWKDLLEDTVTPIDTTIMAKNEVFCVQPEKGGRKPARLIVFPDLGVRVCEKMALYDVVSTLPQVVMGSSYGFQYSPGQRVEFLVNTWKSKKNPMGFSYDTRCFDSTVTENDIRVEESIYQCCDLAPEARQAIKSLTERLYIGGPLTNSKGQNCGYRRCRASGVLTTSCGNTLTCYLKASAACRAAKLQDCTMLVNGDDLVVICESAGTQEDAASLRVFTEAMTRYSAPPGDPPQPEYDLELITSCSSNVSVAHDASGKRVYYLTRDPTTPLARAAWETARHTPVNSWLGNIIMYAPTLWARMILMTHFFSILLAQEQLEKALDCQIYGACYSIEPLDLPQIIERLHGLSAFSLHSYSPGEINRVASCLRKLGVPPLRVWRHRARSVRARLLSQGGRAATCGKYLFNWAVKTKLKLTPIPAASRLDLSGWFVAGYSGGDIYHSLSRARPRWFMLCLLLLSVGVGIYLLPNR

| Compound | IC50 [nM] |
| --- | --- |
| CNC(=O)c1c(-c2ccc(F)cc2)oc2cc(N(CCOCCOCCc3ccccc3C(=O)OC)S(C)(=O)=O)c(C3CC3)cc12 [Compound 11-5A, 2-{2-[2-(2-{[5-Cyclopropyl-2-(4-fluoro-phenyl)-3-methylcarbamoyl-benzofuran-6-yl]-methanesulfonyl-amino}-ethoxy)-ethoxy]-ethyl}-benzoic Acid Methyl Ester] | 100 to 1000 |
| CCOC(=O)c1cccc(CCOCCOCCN(c2cc3oc(-c4ccc(F)cc4)c(C(=O)NC)c3cc2C2CC2)S(C)(=O)=O)c1 [Compound 11-5B, 3-{2-[2-(2-{[5-Cyclopropyl-2-(4-fluoro-phenyl)-3-methylcarbamoyl-benzofuran-6-yl]-methanesulfonyl-amino}-ethoxy)-ethoxy]-ethyl}-benzoic Acid Ethyl Ester] | > 1000 |
| CNC(=O)c1c(-c2ccc(F)cc2)oc2cc(N(CCOCCOCCc3ccc(C(=O)OC)cc3)S(C)(=O)=O)c(C3CC3)cc12 [Compound 11-5C, 4-{2-[2-(2-{[5-Cyclopropyl-2-(4-fluoro-phenyl)-3-methylcarbamoyl-benzofuran-6-yl]-methanesulfonyl-amino}-ethoxy)-ethoxy]-ethyl}-benzoic Acid Methyl Ester] | > 1000 |
| CNC(=O)c1c(-c2ccc(F)cc2)oc2cc(N(CCOCCOCCc3ccccc3C(=O)O)S(C)(=O)=O)c(C3CC3)cc12 [Compound 11-6A, 2-{2-[2-(2-{[5-Cyclopropyl-2-(4-fluoro-phenyl)-3-methylcarbamoyl-benzofuran-6-yl]-methanesulfonyl-amino}-ethoxy)-ethoxy]-ethyl}-benzoic Acid] | < 100 |
| CNC(=O)c1c(-c2ccc(F)cc2)oc2cc(N(CCOCCOCCc3cccc(C(=O)O)c3)S(C)(=O)=O)c(C3CC3)cc12 [Compound 11-6B, 3-{2-[2-(2-{[5-Cyclopropyl-2-(4-fluoro-phenyl)-3-methylcarbamoyl-benzofuran-6-yl]-methanesulfonyl-amino}-ethoxy)-ethoxy]-ethyl}-benzoic Acid] | < 100 |
| CNC(=O)c1c(-c2ccc(F)cc2)oc2cc(N(CCOCCOCCc3ccc(C(=O)O)cc3)S(C)(=O)=O)c(C3CC3)cc12 [Compound 11-6C, 4-{2-[2-(2-{[5-Cyclopropyl-2-(4-fluoro-phenyl)-3-methylcarbamoyl-benzofuran-6-yl]-methanesulfonyl-amino}-ethoxy)-ethoxy]-ethyl}-benzoic Acid] | 100 to 1000 |
| CNC(=O)c1c(-c2ccc(F)cc2)oc2cc(N(CCOCCOCCCc3ccccc3C(=O)OC)S(C)(=O)=O)c(C3CC3)cc12 [Compound 12-6A, 2-{3-[2-(2-{[5-Cyclopropyl-2-(4-fluoro-phenyl)-3-methylcarbamoyl-benzofuran-6-yl]-methanesulfonyl-amino}-ethoxy)-ethoxy]-propyl}-benzoic Acid Methyl Ester] | 100 to 1000 |
| CNC(=O)c1c(-c2ccc(F)cc2)oc2cc(N(CCOCCOCCCc3ccccc3C(=O)O)S(C)(=O)=O)c(C3CC3)cc12 [Compound 12-7A, 2-{3-[2-(2-{[5-Cyclopropyl-2-(4-fluoro-phenyl)-3-methylcarbamoyl-benzofuran-6-yl]-methanesulfonyl-amino}-ethoxy)-ethoxy]-propyl}-benzoic Acid] | < 100 |
| CNC(=O)c1c(-c2ccc(F)cc2)oc2cc(N(CCOCCOCCCc3cccc(C(=O)O)c3)S(C)(=O)=O)c(C3CC3)cc12 [Compound 12-7B, 3-{3-[2-(2-{[5-Cyclopropyl-2-(4-fluoro-phenyl)-3-methylcarbamoyl-benzofuran-6-yl]-methanesulfonyl-amino}-ethoxy)-ethoxy]-propyl}-benzoic Acid] | < 100 |
| CNC(=O)c1c(-c2ccc(F)cc2)oc2cc(N(CCOCCOCCCc3ccc(C(=O)O)cc3)S(C)(=O)=O)c(C3CC3)cc12 [Compound 12-7C, 4-{3-[2-(2-{[5-Cyclopropyl-2-(4-fluoro-phenyl)-3-methylcarbamoyl-benzofuran-6-yl]-methanesulfonyl-amino}-ethoxy)-ethoxy]-propyl}-benzoic Acid] | 100 to 1000 |
| CNC(=O)c1c(-c2ccc(F)cc2)oc2cc(N(CCOCCCCc3ccc(C(=O)OC)cc3)S(C)(=O)=O)c(C3CC3)cc12 [Compound 13-7A, 4-[4-(2-{[5-Cyclopropyl-2-(4-fluoro-phenyl)-3-methylcarbamoyl-benzofuran-6-yl]-methanesulfonyl-amino}-ethoxy)-butyl]-benzoic Acid Methyl Ester] | 100 to 1000 |
| CNC(=O)c1c(-c2ccc(F)cc2)oc2cc(N(CCCOCCCc3ccc(C(=O)OC)cc3)S(C)(=O)=O)c(C3CC3)cc12 [Compound 13-7B, 4-[3-(3-{[5-Cyclopropyl-2-(4-fluoro-phenyl)-3-methylcarbamoyl-benzofuran-6-yl]-methanesulfonyl-amino}-propoxy)-propyl]-benzoic Acid Methyl Ester] | 100 to 1000 |
| CNC(=O)c1c(-c2ccc(F)cc2)oc2cc(N(CCCCOCCc3ccc(C(=O)OC)cc3)S(C)(=O)=O)c(C3CC3)cc12 [Compound 13-7C, 4-[2-(4-{[5-Cyclopropyl-2-(4-fluoro-phenyl)-3-methylcarbamoyl-benzofuran-6-yl]-methanesulfonyl-amino}-butoxy)-ethyl]-benzoic Acid Methyl Ester] | 100 to 1000 |
| CNC(=O)c1c(-c2ccc(F)cc2)oc2cc(N(CCCCCCCc3ccc(C(=O)OC)cc3)S(C)(=O)=O)c(C3CC3)cc12 [Compound 13-7D, 4-(7-{[5-Cyclopropyl-2-(4-fluoro-phenyl)-3-methylcarbamoyl-benzofuran-6-yl]-methanesulfonyl-amino}-heptyl)-benzoic Acid Methyl Ester] | 100 to 1000 |
| CNC(=O)c1c(-c2ccc(F)cc2)oc2cc(N(CCOCCCCc3ccc(C(=O)O)cc3)S(C)(=O)=O)c(C3CC3)cc12 [Compound 13-8A, 4-[4-(2-{[5-Cyclopropyl-2-(4-fluoro-phenyl)-3-methylcarbamoyl-benzofuran-6-yl]-methanesulfonyl-amino}-ethoxy)-butyl]-benzoic Acid] | 100 to 1000 |
| CNC(=O)c1c(-c2ccc(F)cc2)oc2cc(N(CCCOCCCc3ccc(C(=O)O)cc3)S(C)(=O)=O)c(C3CC3)cc12 [Compound 13-8B, 4-[3-(3-{[5-Cyclopropyl-2-(4-fluoro-phenyl)-3-methylcarbamoyl-benzofuran-6-yl]-methanesulfonyl-amino}-propoxy)-propyl]-benzoic Acid] | 100 to 1000 |
| CCOC(=O)c1ccccc1OCCOCCOCCN(c1cc2oc(-c3ccc(F)cc3)c(C(=O)NC)c2cc1C1CC1)S(C)(=O)=O [Compound 14-6A, 2-{2-[2-(2-{[5-Cyclopropyl-2-(4-fluoro-phenyl)-3-methylcarbamoyl-benzofuran-6-yl]-methanesulfonyl-amino}-ethoxy)-ethoxy]-ethoxy}-benzoic Acid Ethyl Ester] | 100 to 1000 |
| CCOC(=O)c1cccc(OCCOCCOCCN(c2cc3oc(-c4ccc(F)cc4)c(C(=O)NC)c3cc2C2CC2)S(C)(=O)=O)c1 [Compound 14-6B, 3-{2-[2-(2-{[5-Cyclopropyl-2-(4-fluoro-phenyl)-3-methylcarbamoyl-benzofuran-6-yl]-methanesulfonyl-amino}-ethoxy)-ethoxy]-ethoxy}-benzoic Acid Ethyl Ester] | > 1000 |
| CCOC(=O)c1ccc(OCCOCCOCCN(c2cc3oc(-c4ccc(F)cc4)c(C(=O)NC)c3cc2C2CC2)S(C)(=O)=O)cc1 [Compound 14-6C, 4-{2-[2-(2-{[5-Cyclopropyl-2-(4-fluoro-phenyl)-3-methylcarbamoyl-benzofuran-6-yl]-methanesulfonyl-amino}-ethoxy)-ethoxy]-ethoxy}-benzoic Acid Ethyl Ester] | > 1000 |
| CNC(=O)c1c(-c2ccc(F)cc2)oc2cc(N(CCOCCOCCOc3ccccc3C(=O)O)S(C)(=O)=O)c(C3CC3)cc12 [Compound 14-7A, 2-{2-[2-(2-{[5-Cyclopropyl-2-(4-fluoro-phenyl)-3-methylcarbamoyl-benzofuran-6-yl]-methanesulfonyl-amino}-ethoxy)-ethoxy]-ethoxy}-benzoic Acid] | < 100 |
| CNC(=O)c1c(-c2ccc(F)cc2)oc2cc(N(CCOCCOCCOc3cccc(C(=O)O)c3)S(C)(=O)=O)c(C3CC3)cc12 [Compound 14-7B, 3-{2-[2-(2-{[5-Cyclopropyl-2-(4-fluoro-phenyl)-3-methylcarbamoyl-benzofuran-6-yl]-methanesulfonyl-amino}-ethoxy)-ethoxy]-ethoxy}-benzoic Acid] | 100 to 1000 |
| CNC(=O)c1c(-c2ccc(F)cc2)oc2cc(N(CCOCCOCCOc3ccc(C(=O)O)cc3)S(C)(=O)=O)c(C3CC3)cc12 [Compound 14-7C, 4-{2-[2-(2-{[5-Cyclopropyl-2-(4-fluoro-phenyl)-3-methylcarbamoyl-benzofuran-6-yl]-methanesulfonyl-amino}-ethoxy)-ethoxy]-ethoxy}-benzoic Acid] | 100 to 1000 |
| CCOC(=O)c1ccc(OCCCCCCN(c2cc3oc(-c4ccc(F)cc4)c(C(=O)NC)c3cc2C2CC2)S(C)(=O)=O)cc1 [Compound 15-7, 4-(6-{[5-Cyclopropyl-2-(4-fluoro-phenyl)-3-methylcarbamoyl-benzofuran-6-yl]-methanesulfonyl-amino}-hexyloxy)-benzoic Acid Ethyl Ester] | 100 to 1000 |
| CNC(=O)c1c(-c2ccc(F)cc2)oc2cc(N(CCCCCCOc3ccc(C(=O)O)cc3)S(C)(=O)=O)c(C3CC3)cc12 [Compound 15-8, 4-(6-{[5-Cyclopropyl-2-(4-fluoro-phenyl)-3-methylcarbamoyl-benzofuran-6-yl]-methanesulfonyl-amino}-hexyloxy)-benzoic Acid] | 100 to 1000 |
